These results are taken from US8748180B2, “Microfluidic device for pharmacokinetic-pharmacodynamic study of drugs and uses thereof” (Cornell University, priority 2009, dated 2014).

Data set [1] deals with dihydropyrimidine dehydrogenase (DPD). The conditions noted are these: PK model parameter; calculated from rate of metabolism in a rat and reported liver protein content and cell number; cited from earlier work.
The subject of data set [2] is HCT-116. The experiment in a line: Toxicity experiment in static conditions, hydrogel-encapsulated cells, Trypan-blue viability, PD model fit. The format is cell-based. The conditions noted are these: Homo sapiens, HCT-116, 72 h, 5-FU 0, 0.1, 0.2, 0.5 mM, three days, read-out: KC50 (drug concentration where half of the maximum rate is observed), fitted PD parameter. The procedure: (§1) For static condition experiment, the same silicone gaskets were prepared on a glass slide, similar to the μCCA. Cells were seeded into the holes, encapsulated in hydrogel, and […] of cell culture medium were placed on top. This volume is same as the volume of medium placed in the reservoir of a μCCA. Therefore, cells in static conditions are essentially the same as the cells in a μCCA, except that the device was not assembled with the channel layer, and cells were immersed in liquid medium. Cell viability was assessed using the same method as a μCCA.

Data set [3] relates to HepG2/C3A. The data set is described as above. The format is cell-based. As to conditions: three days. The procedure: as §1
Data set [4] deals with Kasumi-1. The data set is described as above. The conditions noted are these: Homo sapiens, Kasumi 1, 72 h, 5-FU 0, 0.1, 0.2, 0.5 mM, three days, read-out: KC50 (drug concentration where half of the maximum rate is observed), fitted PD parameter. The format is cell-based. The procedure: as §1
The conditions of data set [5]: previous clinical findings; cited from earlier work.
Data set [6] relates to HepG2/C3A, HCT-116 and Kasumi-1 cells. The experiment in a line: μCCA viability of three cell lines, 5-FU alone vs 5-FU plus uracil (uracil as modulator).
Description: The device was assembled by sandwiching a cell culture chamber layer and a fluidic channel layer between an aluminum bottom frame and a PLEXIGLAS® top frame. A silicone gasket and a polycarbonate base were added to ensure better sealing. […] The device was placed on a rocking platform, set to change direction at approximately every 3 min.
(§2) The whole system was placed inside a cell culture incubator with 5% CO2. After a specified amount of time, the device was dissembled and cells were retrieved by dissolving the alginate in a dissolving buffer (55 mM sodium citrate, 30 mM EDTA, 0.15M NaCl) for 30 min at 37° C., or from […] ® by dissolving in DPBS with 5 mM EDTA solution at 4° C. Cell viability was determined by Trypan-blue exclusion assay using a hemocytometer. At least triplicates were done for each data point.
The effect of uracil as a modulator of 5-FU toxicity was tested by comparing the responses of cells to 5-FU plus uracil and 5-FU alone. […] Cells were also encapsulated in a different hydrogel, […] ®, in a μCCA.
For data set [7], the system named is HepG2/C3A. Description: Toxicity in three-chamber μCCA (dynamic conditions), Trypan-blue viability, PK-PD model fit. The conditions noted are these: both static and dynamic conditions; lower Kmax or higher KC50.
Description: (§3) The device was placed on a rocking platform, set to change direction at approximately every 3 min.
as §2
(§4) An integrated PK-PD model was developed by constructing a PK and PD model separately, and then combining the two. A PK model has the same layout of compartments as a μCCA device. A PD model is integrated into each compartment, describing the kinetics of cell death in each organ. To construct a PK model for a μCCA, mass balance equations describing the flow in, flow out, and metabolism were set up for each compartment, and the ordinary differential equations (ODEs) were solved numerically. Solving the equations required several parameters, such as physiological parameters (flow rate and size of chambers) and enzyme kinetic parameters for the metabolism of 5-FU and uracil, which are summarized in Table 1. […]
The test system of data set [8] is HCT-116. The description is as above. The conditions noted are these: three days.
Description: as §3, §2, §4
Data set [9] deals with Kasumi-1. The data set is described as above. The conditions noted are these: three days.
Description: as §3, §2, §4

As to `O=c1cc[nH]c(=O)[nH]1` [uracil], in data set [1], the “Maximum rate of metabolism (Vm)” value was 1695 nmol/min/mL.
With `O=c1[nH]cc(F)c(=O)[nH]1` [5-FU, 5-fluorouracil], the EC50 in the data set with HCT-116 [2] is 8.61 mM; in the data set with HepG2/C3A [3] (HepG2/C3A, 72 h, 5-FU 0, 0.1, 0.2, 0.5 mM, read-out: KC50 (drug concentration where half of the maximum rate is observed), fitted PD parameter) it was 5.52 mM; in the data set on Kasumi-1 [4] it was 7.41 mM. Also, in the data set on HepG2/C3A [3], the “Drop in viability compared with other cell types” value is given as “slower drop in the viability”. Besides, the “Maximum rate of metabolism (Vm)” value in [1] is 2385 nmol/min/mL. The Dose-limiting toxicity entry in [5] is listed as “hematological toxicity”. In addition, the “Sensitivity of cells to 5-FU in dynamic conditions versus static conditions” value in data set [6] was “more sensitive”. In addition, the “Resistance to 5-FU compared with other two cell types” value in the data set with HepG2/C3A [7] is listed as “most resistant”. In addition, the “Sensitivity to 5-FU treatment compared with hepatoma (HepG2/C3A) cell line” value in the data set with HCT-116 [8] and with Kasumi-1 [9] was “much more sensitive” throughout.
